# Values quoted from earlier work as cited in publication PMC10320121 (Nucleic Acids Research, 2023).
smiles,measurement,value
"N#Cc1ccc2[nH]cc(CCCCN3CCN(c4ccc5oc(C(N)=O)cc5c4)CC3)c2c1 [Vilazodone, vilazodone]",oral bioavailability (F),47.45%
